Measurements taken from a melting point compilation (Tetko et al.; mined from patent text by program, amines drawn as free bases though some values may be those of a salt).

Row | Compound | melting point [°C]
1 | O=CNCC1CCN(C(c2ccccc2)c2ccccc2)CC1 | 125
2 | COc1c(Cl)ccc(C2=NC(C)(C)CO2)c1SC | 50 to 52
3 | OC(CCCCCOCc1ccccc1)c1cccc(OCc2ccc3ccccc3n2)c1 (configuration not stated) | 86 to 89
4 | N=C(NO)c1cccc2nc(N[C@@H]3CCc4ccccc43)ccc12 | 200
5 | CNC(=O)C1CCCCN1C(=O)OC(C)(C)C (configuration not stated) | 83 to 83.5
6 | COc1cc2[nH]c(=O)c3c(c2cc1OC)CCN(CCN1CCCCC1)C3 | 185 to 188
7 | NC(=O)CN(N=O)N1CCOCC1 | 134 to 136
8 | CCOC(=O)C(=CO)CCN1CCC(C2(c3ccc(F)cc3)OCCO2)CC1 | 117
9 | Cc1ncc2n1-c1ccc(Cl)cc1C(c1ccccc1F)N(O)C2 (configuration not stated) | 246 to 248
10 | COC(=O)[C@@H]1[C@H](NCc2cc(OC(F)(F)F)ccc2OC)[C@H](c2ccccc2)N[C@@H]1C (relative stereo) | 81 to 82
11 | Clc1ccc(C2(c3ccc4nccc(CCc5ccc(Cl)s5)c4c3)OCCO2)cc1 | 94
12 | CCc1csc2c(C(=O)O)c(=O)c3cc(F)c(N4CCNCC4)cc3n12 | 247 to 251
13 | COc1ccc2ccc(N3C(=O)c4ccccc4C3CC(O)CCC(C)C)nc2n1 (configuration not stated) | 110
14 | C=C(CCCCCCCCCCCCCCCC)CC(CO)CO | 64 to 65
15 | CCCCCCCCCCCCCCCCOCC(CO)CF (configuration not stated) | 34
16 | CCc1nc2c(cnn2CC)c(NC2CCOCC2)c1CN(Cc1ccc(OC)c(-c2cccc(CN3CCN(C)CC3)c2)c1)C(=O)c1cccc(C(N)=O)c1 | 120 to 123
17 | COC(=O)c1cc2c(nc1C)C(CBr)CCCC2 (configuration not stated) | 66 to 67
18 | CC(C)OC(=O)c1cc(N2C(=O)C(C)C(C)N(C)C2=O)c(F)cc1Cl (configuration not stated) | 119 to 120
19 | CCOC(=O)C1=C(C(=O)OCC)N(c2ccccc2)C(c2ccccc2)N(c2ccccc2)C1 (configuration not stated) | 120
20 | OC[C@H](O)COc1nc(Oc2ccc(F)cc2F)nc2[nH]nc(-c3ccccc3Cl)c12 | 179 to 181

Row | Compound | melting point [°C]
21 | COc1cc2c(cc1OCc1ccccc1)CCN(C(=O)CC13CC4CC(CC(C4)C1)C3)C2 | 133 to 135
22 | O=C1C(=O)N2CCOc3c(Cl)c(Cl)cc1c32 | 237 to 238
23 | O=C(O)c1ccc(Br)c(CN2CCC(c3cn(Cc4ccncc4)c4ccccc34)CC2)c1 | 167 to 168
24 | CCN(Cc1csc(C2CCCC2)n1)C(=O)N[C@H](C(=O)N[C@@H](Cc1ccccc1)C[C@H](O)[C@H](Cc1ccccc1)NC(=O)OCc1cncs1)C(C)C | 67 to 69
25 | O=C(NCCCCC1CCSS1)n1cc(F)c(=O)[nH]c1=O (configuration not stated) | 126
26 | Cn1c(CN2C(=O)C3(COc4cc5c(cc43)OCO5)c3ccccc32)nc2ccccc21 (configuration not stated) | > 250
27 | CO[C@]1(c2cc(F)cc(Oc3ccc(/C(C)=N/O)cc3)c2)CCO[C@@H]1C (racemic) | 126 to 127
28 | Oc1ccccc1-c1ccccc1P(c1cc(C(F)(F)F)cc(C(F)(F)F)c1)c1cc(C(F)(F)F)cc(C(F)(F)F)c1 | 120 to 121
29 | CCc1cn(C2CCC(CO)O2)c(=O)[nH]c1=O (configuration not stated) | 109 to 113
30 | CCC1CCN(C(=O)C(Cc2c[nH]cn2)NC(=O)C2CCC(=O)N2)C1C(N)=O (racemic) | 156 to 160
31 | O=C(O)COc1c(Cl)cc(Cl)cc1Cl | 180 to 183
32 | Cc1cc(C(N)=O)ncc1C(c1c(F)ccc(F)c1F)S(=O)(=O)CCCC(F)(F)F (configuration not stated) | 201 to 203
33 | CNC(=O)c1ccccc1Nc1nc(Nc2ccc3c(c2)CCC(NCC(F)(F)F)CC3)ncc1Cl (configuration not stated) | 202 to 203
34 | CCOC(=O)C1C(=O)CC(C)(O)C(C(=O)OCC)C1c1cc(OC)c2oc(C)c(C)c2c1 (configuration not stated) | 157 to 158
35 | CCCCCNc1nc(SC)nc2c(C)n[nH]c12 | 88 to 90
36 | CCOC(=O)N(C)NC1=Nc2sc(CC)cc2C(c2ccccc2Cl)=NC1 | 172 to 174
37 | COC(=O)Cc1ccc(OCC(C)NCC(O)c2cccc(Cl)c2)c(O)c1 (configuration not stated) | 68
38 | CCc1c(-c2ccccc2)oc2c(C(=O)NCCCN3CCN(c4ccccc4OC)CC3)cccc2c1=O | 133 to 136
39 | Cc1nn(-c2ccc(C#N)c(Cl)c2)c(C)c1Oc1ccc(NC(=O)C(C)(C)C)cn1 | 191 to 192
40 | COC(=O)c1ccc(CCN(C)CCCC(C#N)(C(=O)OC)c2ccc(OC)c(OC)c2)cc1 (configuration not stated) | 80 to 83

The next lines start with the values.

Row | melting point [°C] | Compound
41 | 112 to 113 | COc1ccc2sc(=O)n(C(C)=O)c2c1
42 | 110 to 111 | CN(CCOc1ccc(Cn2cc(CCC(=O)O)c(-c3ccccc3)n2)cc1)c1ccccn1
43 | 124 to 125 | Clc1nc(-c2ccncc2)cs1
44 | 97 to 100 | Cc1cccc(-c2[nH]c(C(C)C)nc2-c2cccc(-c3ccccn3)c2)n1
45 | 245 to 248 | O=C(Nc1nc(-c2ccccn2)nc2ccccc12)C(F)(F)F
46 | 160 to 162 | CC(NC(=O)C(Cc1ccc(OCc2ccccc2)cc1)NC(=O)OC(C)(C)C)C(=O)O (configuration not stated)
47 | > 250 | CC1(C)Oc2ccc(-c3c(N)c(=O)c3=O)cc2[C@@H](N2Cc3ccccc3C2=O)[C@@H]1O (relative stereo)
48 | 149 to 150 | Cc1nc(-c2cn(CCc3ccc(F)cc3)nn2)sc1C(=O)NCc1cccnc1
49 | 150 to 152 | O=C1COCCN1c1ccc([N+](=O)[O-])cc1
50 | 209 | CC(C)c1noc(-c2ncn3c4cccc(Cl)c4c(=O)n(C)c23)n1
51 | 88 to 89 | c1ccc(Cc2nc(-c3ccncc3)cs2)cc1
52 | 175 to 177 | CN1CCN(c2ccc(S(=O)(=O)Oc3cccc(F)c3)cc2)C1=O
53 | 66.8 | CCCCC(=O)N[C@@H]1CN2C(=O)N(c3cc(Cl)nc(Cl)c3)C(=O)[C@@]2(Cc2ccc(OC(F)(F)F)cc2)C1
54 | 76 to 77 | O=[N+]([O-])c1cc(CO)ccc1OCc1ccccc1
55 | 87 to 95 | COC[C@H]1CN(C2=Nc3ccccc3Nc3sc(C)cc32)CCN1
56 | 335 to 345 | O=C1NC(=O)c2c1ccc1[nH]c3ccc(O)cc3c21
57 | 337 to 339 | Cc1cccc2oc(Nc3ccc(CC(=O)O)cc3)nc12
58 | 238 to 240 | O=C1CC(c2cccc(-n3ccnc3)c2)=Nc2cc(N3CCC(O)CC3)c(-c3ccc(F)cc3)cc2N1
59 | 218 to 219 | CCOc1ccc(NC(=O)c2c[nH]c3c2C(=O)C(C)(C)CC3)c(F)c1

Row | melting point [°C] | Compound
60 | 114 | COC(=O)c1cc(Cl)ccc1NC(=O)N(C)C
61 | 192 to 193 | CSc1ncc2ccc(=O)n(C)c2n1
62 | 114 to 116 | O=S1N=C(NCCCN(Cc2ccccc2)c2ccccn2)C(NCc2cccnc2)=N1 (configuration not stated)
63 | 205 to 207 | CC(C)n1nc(-c2sc(NC(=O)Oc3ccccc3)nc2-c2ccccc2)ccc1=O
64 | 253 | CCOc1cc(-c2cc(C(F)(F)F)n3ncc(C(=O)Nc4cccc(S(N)(=O)=O)c4)c3n2)ccc1C(F)(F)F
65 | 171 to 172 | COc1ccc(CCCC(=O)NC(NC(Cc2ccccc2C)=NC#N)C(C)(C)C)cc1 (configuration not stated)
66 | 57.8 to 58.9 | CCCCCS(=O)(=O)NC(=O)CCc1ccc(OCCOC)cc1OCC1CCCO1 (configuration not stated)
67 | 246 to 248 | Nc1nc(N)nc(-c2ccc(OCc3ccc(Cl)cc3)cc2)n1
68 | 88 to 90 | CCOC(=O)Cc1ccc(CCNS(=O)(=O)c2ccc(Cl)cc2)cc1
69 | 150 to 151 | O=Cc1c2n(c3ccncc13)CCC2
70 | > 300 | O=C(O)C1CCc2cccc3c(=O)[nH]c(=O)n1c23 (configuration not stated)
71 | 154 to 155 | COc1ccc(C(=O)Nc2cc(N)ccc2Br)cc1OC
72 | 177 to 179 | Oc1ccc(CNC2=NCCc3ccccc32)cc1
73 | 186 to 190 | O=S1(=O)c2ccccc2C(CCCl)(CCCl)c2ccccc21
74 | 75.5 to 76.5 | CCOC(=O)C(S)CC(=O)c1ccc(Oc2ccc(Cl)cc2)cc1 (configuration not stated)
75 | 177 to 179 | CS(=O)(=O)c1ccc(CN2CC3(COc4cc5c(cc43)OCO5)c3ccccc32)o1 (configuration not stated)
76 | 195 to 199 | O=[N+]([O-])c1ccc(-c2cnc3nc(SCc4ccccc4)nn3c2)cc1
77 | 212 | O=C1c2cccc(NC(=S)Nc3ncccn3)c2C2CCCCN12 (configuration not stated)
78 | 89 to 91 | CC(=O)n1nc(C)c2ccc(F)cc21

Row | melting point [°C] | Compound
79 | 191 to 192 | CCn1ncc2c(NCc3ccncc3)c3ccccc3nc21
80 | 148 to 151 | O=C1c2cc(Br)ccc2CCc2ccc(S(=O)(=O)F)cc21
81 | 59 to 64 | CCCCN(CC(=O)OCc1ccccc1)S(=O)(=O)c1ccc(N2CCC(NC[C@H](O)c3ccc(O)c(NS(C)(=O)=O)c3)CC2)cc1
82 | 162 to 163 | CCNC(=O)C1Cc2c(n(C)c3ccc(OC)cc23)C1 (configuration not stated)
83 | 170 to 175 | Cc1nc(-c2ccc(CCN3CCN(c4cccc(C(F)(F)F)c4)CC3)cc2)cs1
84 | 108 to 110 | COc1cn(-c2ccc(OS(=O)(=O)C(F)(F)F)cc2F)nc(-c2ccnn2-c2ccccc2)c1=O
85 | 186 to 190 | NS(=O)(=O)c1ccc(-c2c(-c3ccccc3)noc2CCO)cc1
86 | 148 to 149 | CC1(C)CC(OC(=O)c2ccccc2)CC(C)(C)N1OC(N)=O
87 | 112 | CCc1cc(Br)cc(CC)c1N=C(c1ccccc1)c1ccccc1
88 | 201 to 210 | Cc1cccc2c(=O)[nH]cc(Br)c12
89 | 40 to 42 | Cc1oc(-c2ccccc2)nc1CCCCCO
90 | 226 to 229 | CC1(C)Oc2ccc(C#N)cc2[C@@H](N2CCN(C(=O)c3ccco3)CC2=O)[C@@H]1O (relative stereo)
91 | 135 to 138 | CC(C)NCC(O)c1ccc(OCc2ccccc2)c(C(N)=O)c1 (configuration not stated)
92 | 119 to 120 | Cc1ccc([N+](=O)[O-])cc1S(=O)(=O)n1ccnc1
93 | 138 to 140 | CN(C)C=NS(=O)(=O)c1cc(CCNC(=O)C(F)(F)F)ccc1OCC1CCCO1 (configuration not stated)
94 | 96 | O=C(O)c1cccc(CNC(=O)C2Cc3ccccc3N2S(=O)(=O)c2ccc(-c3cccc(C(F)(F)F)c3)cc2)c1 (configuration not stated)
95 | 144 to 146 | Cc1cc(O)c(S(=O)Cc2ccc(Cl)c(Cl)c2)c(=O)o1 (configuration not stated)
96 | 269 to 271 | CN(C)c1cccc(-n2cc(C(=O)NC(=N)N)c3cccnc32)c1
97 | 296 to 298 | O=C1C2=C(NC3(C=N2)OCCO3)c2ccccc21
